Source: the supplement of paper PMC10307832

Assays:
Assay in all cases: relative viability (nuclei count vs DMSO), 5 days (fraction); higher = more cells survive
[1] = compound: C1=CC=C(C(=C1)C2=CC=C(C=C2)C3=CSC4=C3C(=C(C(=O)N4)C#N)O)O + COc1cc2c(Oc3ccc(NC(=O)C4(C(=O)Nc5ccc(F)cc5)CC4)cc3F)ccnc2cc1OCCCN1CCOCC1 [Foretinib] (partner 0.25 µM)
Method in brief: (§1)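 Lung cancer cell lines, seeded in 1536-well plates, were treated the following day by pin tool with a single drug or with five library-drug doses (not always all listed) in √10 steps on top of a fixed anchor-drug dose. Cells were fixed and nuclei stained in one step after 5 days, and nuclei were counted. Relative viability is the nuclei count for treated wells divided by that for vehicle wells, reported as medians of duplicate plates.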

[2] = compound: CC1=CN2C(=O)C=C(N=C2C(=C1)C(C)NC3=CC=CC=C3)N4CCOCC4 [TGX 221] + Nc1nc2[nH]cc(CCc3ccc(C(=O)N[C@@H](CCC(=O)O)C(=O)O)cc3)c2c(=O)[nH]1 [Pemetrexed] (partner 0.2 µM)
Method in brief: as §1

[3] = compound: O=C(CCCCCCNC(=O)c1cnc(N(c2ccccc2)c2ccccc2)nc1)NO [Ricolinostat] + Cc1cc(Nc2cc(N3CCN(C)CC3)nc(Sc3ccc(NC(=O)C4CC4)cc3)n2)n[nH]1 [Tozasertib] (partner 0.1 µM)
Method in brief: as §1

[4] = compound: O=C(CCCCCCNC(=O)c1cnc(N(c2ccccc2)c2ccccc2)nc1)NO [Ricolinostat] + Nc1ncn([C@H]2C[C@H](O)[C@@H](CO)O2)c(=O)n1 [Decitabine] (partner 2 µM)
Method in brief: as §1

Row | Cell Line | relative viability ([1]; first compound 0.08 µM) | relative viability ([1]; first compound 0.253 µM) | relative viability ([1]; first compound 0.8 µM) | relative viability ([1]; first compound 2.53 µM) | relative viability ([1]; first compound 8 µM) | relative viability ([2]; first compound 0.08 µM) | relative viability ([2]; first compound 0.253 µM) | relative viability ([2]; first compound 0.8 µM) | relative viability ([2]; first compound 2.53 µM) | relative viability ([2]; first compound 8 µM) | relative viability ([3]; first compound 0.08 µM) | relative viability ([3]; first compound 0.253 µM) | relative viability ([3]; first compound 0.8 µM) | relative viability ([3]; first compound 2.53 µM) | relative viability ([4]; first compound 0.08 µM) | relative viability ([4]; first compound 0.253 µM) | relative viability ([4]; first compound 0.8 µM) | relative viability ([4]; first compound 2.53 µM)
1 | NCI-H1651 | 0.848 | 0.774 | 0.924 | 0.76 | 0.714 | 0.54 | 0.628 | 0.438 | 0.517 | 0.586 | 0.658 | 0.744 | 0.633 | 0.436 | 0.466 | 0.644 | 0.56 | 0.521
2 | NCI-H1666 | 1 | 0.976 | 0.95 | 1.01 | 0.916 | 0.783 | 0.852 | 0.839 | 0.802 | 0.856 | 0.544 | 0.591 | 0.489 | 0.358 | 0.71 | 0.764 | 0.758 | 0.717
3 | NCI-H1734 | 0.783 | 0.803 | 0.899 | 0.971 | 0.738 | 0.459 | 0.399 | 0.414 | 0.436 | 0.395 | 0.241 | 0.29 | 0.231 | 0.292 | 0.486 | 0.497 | 0.519 | 0.47
4 | NCI-H1755 | 0.966 | 0.924 | 0.89 | 0.929 | 0.95 | 0.461 | 0.344 | 0.38 | 0.361 | 0.39 | 0.581 | 0.565 | 0.525 | 0.53 | 0.66 | 0.649 | 0.696 | 0.665
5 | NCI-H1793 | 0.623 | 0.673 | 0.691 | 0.595 | 0.555 | 0.667 | 0.64 | 0.754 | 0.604 | 0.68 |  | 0.256 | 0.27 | 0.244 | 0.423 | 0.514 | 0.56 | 0.499
6 | NCI-H1915 | 1.12 | 1.24 |  | 1.08 | 0.747 | 0.459 | 0.437 | 0.526 | 0.452 | 0.516 | 0.438 | 0.455 | 0.385 | 0.377 | 0.276 | 0.264 | 0.245 | 0.238
7 | NCI-H1944 | 0.88 | 0.863 | 0.987 | 0.935 | 0.904 |  | 0.552 | 0.533 | 0.6 | 0.562 | 0.245 | 0.246 | 0.221 | 0.23 | 0.409 | 0.37 | 0.382 | 0.385
8 | NCI-H1975 | 0.889 | 0.822 | 0.967 | 1 | 0.84 | 0.306 | 0.26 | 0.293 | 0.297 | 0.273 | 0.83 | 0.708 | 0.604 | 0.59 | 0.371 | 0.394 | 0.382 | 0.379
9 | NCI-H1993 | 0.67 | 0.52 | 0.765 | 0.76 | 0.723 | 0.567 | 0.545 | 0.632 | 0.604 | 0.246 |  | 0.644 | 0.561 | 0.536 | 0.571 | 0.588 | 0.599 | 0.709
10 | NCI-H2009 | 1.18 | 1.24 | 1.3 | 1.28 | 1.19 | 0.943 | 1.06 | 1.08 | 1.1 | 0.938 | 0.745 | 0.686 | 0.68 | 0.607 | 0.376 | 0.353 | 0.35 | 0.373
11 | NCI-H2023 | 0.838 | 0.939 | 0.763 | 0.903 | 0.76 | 0.263 | 0.205 | 0.223 | 0.214 | 0.189 |  | 0.373 | 0.244 | 0.188 | 0.234 | 0.233 | 0.227 | 0.204
12 | NCI-H2085 | 1.05 | 0.9 | 0.958 | 0.852 | 0.797 | 0.932 | 0.759 | 0.615 | 0.523 | 0.422 | 0.688 | 0.731 | 0.613 | 0.523 |  | 0.51 | 0.557 | 0.512
13 | NCI-H2087 | 1.35 | 1.27 | 1.06 | 1.11 | 0.792 | 0.745 | 0.637 | 0.582 | 0.663 | 0.672 |  | 0.253 | 0.164 | 0.168 | 0.23 | 0.318 | 0.24 | 0.145
14 | NCI-H2126 | 1.41 | 1.22 | 1.43 | 1.15 | 1.01 | 0.693 | 0.574 | 0.673 | 0.615 | 0.656 |  | 0.823 | 0.739 | 0.495 | 0.563 | 0.555 | 0.561 | 0.481
15 | NCI-H2170 | 0.951 | 1.03 | 0.988 | 1.03 | 0.932 | 0.263 | 0.252 | 0.213 | 0.271 | 0.268 | 0.758 | 0.61 | 0.622 | 0.723 | 0.471 | 0.454 | 0.452 | 0.482
16 | NCI-H2342 | 1.01 | 1.1 | 1.1 | 1.03 | 0.856 | 0.681 | 0.792 | 0.748 | 0.708 | 0.754 | 0.496 | 0.461 | 0.401 | 0.426 | 0.628 | 0.719 | 0.784 | 0.718
17 | NCI-H2347 | 0.845 | 0.923 | 0.951 | 1.01 | 0.735 | 0.467 | 0.414 | 0.445 | 0.386 | 0.389 | 0.419 | 0.47 | 0.513 | 0.425 | 0.626 | 0.664 | 0.585 | 0.61
18 | NCI-H2405 | 1.05 | 1.04 | 1.01 | 1.01 | 0.983 | 1.01 | 1.05 | 1.07 | 0.952 | 0.885 | 0.693 | 0.752 | 0.677 | 0.731 | 0.671 | 0.749 | 0.804 | 0.797
19 | NCI-H3122 | 0.954 | 1.05 | 1.01 | 1.06 | 0.978 | 0.198 | 0.203 | 0.201 | 0.206 | 0.207 |  | 0.361 | 0.382 | 0.295 | 0.388 | 0.404 | 0.443 | 0.529
20 | PC-3 [JPC-3] | 1.05 | 1.01 | 1.02 | 1.05 | 0.995 | 1.08 | 1.09 | 1.11 | 1.04 | 1 |  | 0.84 | 0.851 | 0.771 | 0.766 | 0.736 | 0.757 | 0.758
21 | PC-14 | 0.887 | 1.24 | 0.911 | 1.03 | 0.826 | 0.135 | 0.125 | 0.134 | 0.145 | 0.118 | 0.61 | 0.553 | 0.527 | 0.418 | 0.22 | 0.19 | 0.193 | 0.22
22 | RERF-LC-KJ | 0.917 | 0.996 | 0.902 | 0.914 | 0.778 | 0.479 | 0.471 | 0.484 | 0.465 | 0.475 | 0.531 | 0.406 | 0.324 | 0.265 | 0.77 | 0.609 | 0.672 | 0.618
23 | SK-LU-1 | 0.886 | 0.733 | 0.871 | 0.947 | 0.734 | 0.923 | 0.89 | 0.907 | 0.898 | 0.838 | 0.321 | 0.273 | 0.285 | 0.194 | 0.607 | 0.604 | 0.638 | 0.524
24 | SK-MES-1 | 0.885 | 1.02 | 0.905 | 0.852 | 0.837 | 0.932 | 0.925 | 0.948 | 0.842 | 0.693 | 0.833 | 0.795 | 0.877 | 0.628 | 0.402 | 0.384 | 0.344 | 0.375
25 | SW 900 | 0.914 | 0.519 | 0.923 | 0.634 | 0.62 |  | 0.459 | 0.469 | 0.41 | 0.415 | 0.596 | 0.509 | 0.393 | 0.459 | 0.517 | 0.433 | 0.368 | 0.401
26 | SW 1573 | 0.836 | 0.864 | 0.884 | 0.916 | 0.837 | 0.781 | 0.788 | 0.807 | 0.789 | 0.725 | 0.277 | 0.193 | 0.165 | 0.242 | 0.487 | 0.496 | 0.546 | 0.416
27 | UMC-11 | 0.809 | 0.855 | 1.15 | 1.19 | 0.858 | 0.677 | 0.717 | 0.788 | 0.815 | 0.823 | 0.221 | 0.192 | 0.159 | 0.165 | 0.551 | 0.543 | 0.561 | 0.417
